How the values were obtained:
SKBR3 cells = test: Live-cell microscopy of metabolically incorporated cyclopropene sugar; assay type: cell-based, human; conditions: glycosylation inhibitors or 20 mM ManNAc as competitive substrate
Procedure: SKBR3 and LS 174T cells were grown in cDMEM media supplemented with 10% fetal bovine serum, 1% L-glutamine, 1% penicillin/streptomycin. Cells were incubated in 5.0% carbon dioxide, 95% humidity at 37° C. Generally, cells were grown in T-75 tissue culture flasks, seeded at densities between 500,000 and 750,000 cells per flask (cells were quantified with the Life Technologies Countess automated cell counter). The cells were trypsinized with TrypLE Express and resuspended in cDMEM. Cells were allowed to incubate for two days before supplementing with Ac4ManNCyc (N-cyclopropeneacetylmannosamine) or Ac4GlcNAz (N-azidoacetylglucosamine). The cells were then analyzed via confocal microscopy and flow cytometry as described below.
(§1) The SKBR3 and LS174T cells were incubated for two days in the presence of 100 μM of Ac4ManNCyc and/or 50 μM Ac4GlcNAz on a Lab-Tek chamber slide maintained in cDMEM medium. Treatment of cells with tunicamycin was done by preparing a 0.2 mg/mL stock in DMSO, which was diluted to a final working concentration of 1.2 μM tunicamycin in cDMEM (0.5% DMSO). Cells were washed 3× with phosphate-buffered saline (PBS) and incubated for 1 hour at 37° C. in 10 μM tetrazine-BODIPY TMR-X, 10 μM tetrazine-Alexa flour 488 and/or 15 μM dibenzocyclooctyne (DIBO)-Alexa Fluor 647 in cDMEM. The media was aspirated, and cells were washed twice with PBS before imaging. All photos were collected with an Olympus FV1000 confocal microscope using ImageJ 1.45j software package.
In order to determine if Ac4ManNCyc was incorporated effectively by cells, we incubated adherent human breast cancer (SKBR3) and colon cancer (LS174T) cell lines with 100 μM Ac4ManNCyc for 48 hours in cell media and serum. After incubation, cells were thoroughly washed and then reacted for 1 hour with 10 μM of fluorogenic Alexa Fluor 488 tetrazine. After a second wash, cells were imaged by confocal microscopy (Olympus FV1000). […] In order to ensure that the staining was due to glycan uptake of the probe, we also performed controls by exposing cells to 100 μM Ac4ManNCyc and inhibiting uptake by using glycosylation inhibitors (ie. tunicamycin and αBnGalNAc) or 20 mM of ManNAc as a competitive substrate.^[14] […] These experiments provide evidence that the staining patterns are reporting on glycosylation and uptake of the unnatural cyclopropene mannosamine. We also performed additional studies using flow cytometry to quantitate the relative uptake of sugars that corroborated the imaging data.

[1] = Storage stability of cyclopropene derivatives; assay type: physicochemical; conditions: for storage stability at −20° C.: stored at −20° C.
27mer DNA template [2] = test: Melting temperatures of DNA template with probes and ligation products; assay type: physicochemical; conditions: hybridization target against 27mer template; 250 mM NaCl in buffer; 1 μM each oligonucleotide
Procedure: Melting temperature of probes and ligation products in hybridization buffer (50 mM MOPS pH 7.5, 250 mM NaCl) were measured using a Beckman-Coulter DU 640 spectrophotometer equipped with a high performance temperature controller and micro auto six-cell holder. Samples at 1 μM concentration of each oligonucleotide were heated to 90° C. and slowly cooled to RT over 1-1.5 h before the measurements. Melting temperature values were obtained by cooling samples from 90° C. to 20° C. at the rate of 1° C./min and measuring at 1° C. increments with each read averaged over 1 s.

27mer DNA template [3] = test: Template-driven ligation of tetrazine and cyclopropene oligonucleotide probes (fluorescence); assay type: biochemical; conditions: for change in fluorescence in the absence of template: 1 μM probes, no template
Procedure: Tetrazine and cyclopropene-modified oligonucleotide probes were ligated in the presence of a DNA or RNA template at a 1:1:1 ratio. Reactions were done in varying solution and temperature conditions, as indicated. Main hybridization buffer was 50 mM MOPS at pH 7.5, 250 mM NaCl. Ligation reactions with a mismatched DNA template were performed in 5 mM MgCl2 in standard 1× Tris-borate buffer (purchased as 10× UltraPure TBE from Invitrogen: 1.0 M Tris pH 8.4, 0.9 M Boric acid, 10 mM EDTA).
Ligation reactions were done in standard 96 fluorescence well plates using SpectraMax GeminiXS (Molecular Devices). Temperature was set by the instrument. Where indicated by standard deviations, experiments were performed multiple times. In order to avoid any secondary structure artifacts, DNA or RNA template with added tetrazine probe was first heated to 90° C. and crash-cooled on ice for 2 min right before the experiment. Each well was filled with a total of 100 μL reaction solution, and reactions were timed from the addition of the cyclopropene probe as the last step before starting the measurements. Wells were scanned every 20-60 s depending on the speed of the reactions by using 485 nm excitation and 538 nm emission with the cutoff set at 495 nm. Control reactions without template were done in parallel each time. Buffer-only well intensities were subtracted from the measured raw data before analysis. Data was analyzed using GraphPad Prism 6.0 by applying a nonlinear fit of a one-phase association to each curve where fluorescein signal during reaction was measured.

[4] = Oligonucleotide probe stability in buffer and cell media; assay type: physicochemical; conditions: over a 35-hour period
[5] = Aqueous stability of methyl-cyclopropenes by 1H NMR; assay type: physicochemical; conditions: for aqueous stability: aqueous deuterated solutions (D2O/DMSO-d6=4:1)
Text: (§2) After synthesizing the new cyclopropene mini-tags, we next sought to compare their reactivity with tetrazines through inverse Diels-Alder cycloaddition. Additionally, we also assayed their aqueous stability, since methyl-cyclopropene tags are envisioned to find application in bioorthogonal coupling reactions. In order to monitor kinetics, we reacted eight representative methyl-cyclopropenes with 1-methyl-4-aryl tetrazine under pseudo-first order conditions, and tracked the reaction of tetrazine by monitoring the disappearance of the characteristic absorption at 530 nm, similar to previous reports. For stability experiments, we incubated methyl-cyclopropenes in aqueous deuterated solutions (D2O/DMSO-d6=4:1) as indicated.

[6] = tested on: LS174T human colon cancer cells; test: Simultaneous imaging of two metabolically incorporated unnatural sugars and cross reactivity; assay type: cell-based
Procedure: as §1
Finally, we tested whether or not we could simultaneously image two different metabolically incorporated unnatural sugar derivatives, Ac4ManNCyc and tetraacetylated N-azidoacetylgalactosamine (Ac4GalNAz). […] Recent experimental work has shown that alkenes and azides can be mutually orthogonal to each other, even when using highly strained trans-cyclooctenes. Additionally, the Houk group has calculated that methyl-cyclopropene handles, such as those we have previously developed, should be mutually orthogonal to azide cyclooctyne reactions. We incubated LS174T human colon cancer cells with 100 μM Ac4ManNCyc and Ac4GalNAz for 2 days. After incubation, we sequentially stained the cells with 10 μM tetrazine-Alexa Fluor 488 and 15 μM dibenzocyclooctyne (DIBO) 647. […] Similar results were obtained with the SKBR3 cell line. […] The ability to simultaneously label two different metabolically incorporated molecules using live-cell compatible inverse-Diels-Alder and Huisgen reactions expands the capabilities of bioorthogonal metabolic imaging.

[7] = Reaction rate determination of cyclopropenes with tetrazine 3; assay type: physicochemical
Procedure: A tetrazine 3 stock solution was prepared in DMSO and used to prepare tetrazine solutions at 0.6 mM final concentration in 12% v/v DMSO in ddH2O. Reactions were initiated with excess cyclopropene at final concentrations of 6.0, 8.0, and 10.0 mM. The disappearance of the tetrazine absorption peak at 520 nm was tracked over the reaction timeframe by measuring the absorption spectra using a NanoDrop 2000c spectrophotometer (Thermo Scientific). Samples were placed in a quartz cuvette with 10-mm pathlength and stirred at the maximum speed setting of the instrument. The temperature was uncontrolled by the instrument for room temperature (20° C.) measurements, and set and equilibrated at 37° C. for the higher temperature experiments.
Absorption spectra were measured manually over time. Absorption peak signal was taken as the average of measurements at 519-521 nm. Baseline signal was determined as the sloping line connecting the measured background levels preceding and following the tetrazine peak (410-430 nm and 590-610 nm, respectively). Final peak intensity value was taken as the signal above the baseline. Reaction rates were obtained by fitting the exponential decays of tetrazine peak absorption intensity as a pseudo first order reaction. Nonlinear data fits were performed with GraphPad Prism. Tetrazine reactions with cyclopropene carbamate 5 were carried out at 20 and 37° C. (data points and corresponding fitted curves at 20° C. in FIG. 51, 37° C. in FIG. 2c). Tetrazine reactions with cyclopropene carboxamide 2 were done at 37° C. ([…]. A representative comparison fit is shown for cyclopropenes 5 and 2 at 8.0 mM concentration reacting at 37° C. with 0.6 mM tetrazine.

[8] = Reactivity of methyl-cyclopropene mini-tags with tetrazine, pseudo-first order; assay type: physicochemical; conditions: for rate of reaction with tetrazines (in words): aqueous solvent
Text: as §2

CC(=O)N[C@H]1[C@@H](O)[C@H](O)[C@@H](CO)O[C@@H]1O [ManNAc]
effect on staining of cells exposed to 100 μM Ac4ManNCyc (SKBR3 cells): lowered fluorescent signal

CC1=C([Si](C)(C)C)C1C=O (stereo not drawn) [cyclopropen aldehyde 11]
storage stability at −20° C. [1]: slowly degrading over 48 hours

13merFl5′tet: 5′-tetrazine-/5AmMC6//iFluorT/CG ATG GCG TCA A-3′ (SEQ ID NO:4) (DNA CGATGGCGTCAA; 5' tetrazine, amino C6 linker, internal fluorescein-dT, chemistry not fully specified)
Melting T (27mer DNA template [2]): 57.4 °C
change in fluorescence in the absence of template (27mer DNA template [3]; listed as 13merF15′tet): no appreciable change in fluorescence over time
change in fluorescence in the absence of template (27mer DNA template [3]; listed as Fluorogenic tetrazine probe): does not turn on
increase in the peak emission intensity (27mer DNA template [3]; reaction with the cyclopropene probe in the presence of a DNA template): 9.3 fold
autohydrolytic turn-on [4]: minimal

CC(=O)N[C@H]1[C@@H](OCc2ccccc2)O[C@H](CO)[C@H](O)[C@@H]1O [αBnGalNAc]
effect on staining of cells exposed to 100 μM Ac4ManNCyc (SKBR3 cells): severely diminished staining

CC1=CC1/C=C/C(=O)O (stereo not drawn) [Compound 13]
aqueous stability [5]: unstable to incubation in aqueous solvent at 37 °C

tunicamycin
effect on staining of cells exposed to 100 μM Ac4ManNCyc (SKBR3 cells): severely diminished staining

CC(=O)OC[C@H]1OC(OC(C)=O)[C@H](NC(=O)CN=[N+]=[N-])[C@@H](OC(C)=O)[C@H]1OC(C)=O (stereo partly drawn) [Ac4GalNAz, tetraacetylated N-azidoacetylgalactosamine, reference compound]
cell surface staining after co-incubation of both sugars ([6]; 100 μM, 2 days, stained with 10 μM tetrazine-Alexa Fluor 488 and 15 μM DIBO 647): cell surface staining in both the fluorescent channels
cross reactivity: surface staining with tetrazine-Alexa Fluor 488 ([6]; cells incubated with only this sugar): minimal surface staining

CC1=CC1C(N)=O (stereo not drawn) [cyclopropene 2, 2-methylcycloprop-2-enecarboxamide]
long-term storage stability [1]: could be stored for extended periods of time without degradation
second order rate constant ([7]; 37° C., water/DMSO (12% DMSO by volume)): 0.137 ± 0.004 M⁻¹ s⁻¹

CC1=CC1/C=C/C(=O)NCCO (stereo not drawn) [Compound 14]
rate of reaction with tetrazines (in words) [8]: significantly lowered the rate of reaction with tetrazines
aqueous stability [5]: greatly improved stability

CC1=C([Si](C)(C)C)C1CN (stereo not drawn) [cyclopropene amine 3]
long-term storage stability [1]: not amenable long-term storage

cyclopropene carbamate
rates of cycloaddition with unsubstituted tetrazine relative to methyl-tetrazine ([8]; previous studies with faster reacting unsubstituted tetrazine): 36 fold faster
rate of cycloaddition relative to cyclopropene amide 1 ([7]; reacting with tetrazine 3 in aqueous solution): approximately one-hundred times faster

CC1=C([Si](C)(C)C)C1CN=[N+]=[N-] (stereo not drawn) [cyclopropene azide 2]
long-term storage stability [1]: not amenable long-term storage

CC1=CC1/C=C/CO (stereo not drawn) [Compound 16]
rate of reaction with tetrazines (in words) [8]: greatly increased the reaction rate
time to complete decomposition ([5]; D2O/DMSO-d6=4:1 at room temperature): 10.5 h
aqueous stability [5]: unstable in aqueous solution
storage stability at −20° C. [1]: not stable to long-term storage

Reference: US9533957B2, “Tetrazines and method of synthezising the same” (The Regents of the University of California, priority 2012, dated 2017)
